Assay results from the METLIN SMRT retention time set (Domingo-Almenara et al. 2019).

Assay: gradient 5% acetonitrile 3 min, to 50% in 2 min, to 85% in 15 min, held 3 min, 100 µL/min
Conditions: column: Zorbax Extend-C18 2.1 x 50 mm; eluents: water / acetonitrile, 0.1% formic acid
Procedure, shortened: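 Pure standards were analyzed in mixtures of ~100 molecules using HPLC coupled to a quadrupole time-of-flight mass spectrometer, in both positive and negative ionization mode. Separation used a Zorbax Extend-C18 column (2.1 × 50 mm, 1.8 μm) at 100 μL/min, with water and acetonitrile each containing 0.1% formic acid. Dead and dwell volumes were 40 μL and 900 μL, and data were collected over 3 months. Retention time was read from computationally picked adduct peaks, each inspected manually.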

| RP-LC retention time [s] | Compound |
| --- | --- |
| 653 | Cn1c(N2CCCN(C(=O)c3ccc(Br)o3)CC2)cc(=O)n(C)c1=O |
| 742 | COc1ccc(C(=O)N2CCC3(CC2)NC(=O)c2cc(Cl)ccc2N3C)cc1OC |
| 672 | O=C(NC1CC1)C1CCN(c2nc3ccc(-c4cncnc4)nc3s2)CC1 |
| 638 | CCN1C(=O)c2cccc3c(NC(=O)c4ccc(C(=O)OC)cc4)ccc1c23 |
| 741 | CCCNC(=O)C1CCCN(c2ccc(SCC(=O)Nc3cccc(C(=O)OCC)c3)nn2)C1 (stereo unspecified) |
| 966 | CC(C)(C)c1ccc(O)c(NC(=O)c2cn(-c3ccc(S(=O)(=O)N4CCOCC4)cc3)cn2)c1 |
| 1190 | O=c1cc(N2CCOCC2)oc2c(-c3cccc4c3sc3ccccc34)cccc12 |
| 869 | Cc1ccc(N2CCC(NC(=O)Cc3ccccc3C)C2=O)cc1 (stereo unspecified) |
| 729 | O=C(c1cc(S(=O)(=O)N2CCCC(C(=O)N3CCCCCC3)C2)c[nH]1)N1CCCC1 (stereo unspecified) |
| 745 | COc1ccccc1N1C(=O)N(c2ccc([N+](=O)[O-])cc2)C2CS(=O)(=O)CC21 (stereo unspecified) |
| 642 | COc1cc(NC(=O)N2CCCC(CN3CCc4ccccc4C3)C2)cc(OC)c1OC (stereo unspecified) |
| 738 | Cc1nnc2c(=O)n(CC(=O)NCCN3CCc4ccccc4C3)c3cccnc3n12 |
| 790 | CCN1CCCn2cc(S(=O)(=O)Nc3ccc(Cl)cc3C)cc2C1=O |
| 899 | Cn1c(=O)n(C)c2cc(S(=O)(=O)c3ccc(F)cc3)c(NC(=O)c3ccc(F)cc3)cc21 |
| 614 | O=C(Cc1cn2cc(Cl)ccc2n1)Nc1ccccc1 |
| 563 | NC(=O)C1CCN(Cc2nc(-c3ccc(N4CCOCC4)nc3)no2)CC1 |
| 840 | O=C(CSc1nnc(-c2ccccc2)c(-c2ccccc2)n1)Nc1nccs1 |
| 1040 | CC(=O)OCC1OC(N2CCC(=O)NC2=O)C(OC(C)=O)C1OC(C)=O (stereo unspecified) |

| RP-LC retention time [s] | Compound |
| --- | --- |
| 840 | CCn1nccc1C(=O)N1CCCC1c1ccccc1F (stereo unspecified) |
| 680 | CCOC(=O)c1cccc(NC(=O)CSc2ccc(N3CCCC(C(=O)NC4CC4)C3)nn2)c1 (stereo unspecified) |
| 580 | Cc1ccn2cc(CCNC(=O)c3ccc(C(F)(F)F)cc3)nc2c1 |
| 512 | O=C(O)c1ccc(Cn2cnc3ccccc32)o1 |
| 588 | CCCNC(=O)Nc1ccc(NC(=O)N2CCC(C(=O)NCC)CC2)cc1 |
| 829 | CC(C)CN1CCCCc2cc(C(N)=O)sc21 |
| 692 | CC(=O)N1CCC2(CC1)OC(=O)C(C)=C2C(=O)N1CCc2ccccc2C1 |
| 758 | COc1ccc(-n2nc(C(=O)Nc3ccc4c(c3)OCCO4)c(=O)cc2OC)cc1 |
| 661 | CCOC(=O)N1CCN(S(=O)(=O)c2ccc(C(=O)Nc3nnc(C4CC4)o3)cc2)CC1 |
| 772 | CCCn1c(-c2cccc(C(=O)NC3CCCC3)c2)nc2cccnc21 |
| 614 | CN(CCO)c1cc(N2CCN(c3ccccn3)CC2)c2noc3c2c1C(=O)c1ccccc1-3 |
| 700 | Cc1ccccc1NS(=O)(=O)c1cc(-c2[nH]ncc2C(=O)N2CCCC2)oc1C |
| 692 | CCCCNC(=O)C1CCCN(C(=O)c2[nH]c(C)c(C(=O)OC)c2C)C1 (stereo unspecified) |
| 714 | O=C(CSCc1ccccc1)Nc1c(-c2ccc(F)cc2)nc2ccccn12 |
| 910 | COc1ccc(NC(=O)c2cc3c(=O)n(CC(C)C)c4ccccc4n3n2)cc1OC |
| 916 | CCOc1ccc(C(=O)N2CCCC2c2nc(-c3ccc(OC)c(OC)c3)no2)cc1OCC (stereo unspecified) |
| 855 | CCc1ccccc1NS(=O)(=O)c1cc(-c2c(CC)noc2NC(C)=O)ccc1C |
| 860 | Cc1ccc2c(=O)c3cccc(CC(=O)O)c3oc2c1C |
